Test system: adult bed bugs (Cimex lectularius)
Test: Bed bug repellency, treated versus untreated filter paper halves in Petri dish chamber
Format: in vivo
Conditions: for Repellency (%) Treatment Group / bed bugs on Nootkatone treatment filter paper (count, of 50) / Repellency (summary of bedbug repellency): 0.1% BHT; for Corrected 0.25% nootkatone repellency / bed bugs on 0.25% Nootkatone-treated filter paper, average count (of 10) / Corrected 1% nootkatone repellency / bed bugs on 1% Nootkatone-treated filter paper, average count (of 10): 0.1% BHT in ethanol, dried paper; for Nootkatone Repellency / bed bugs on nootkatone-treated filter paper (count, of 50): 5% Nootkatone in acetone, 0.1% BHT (title; column head prints 10%); for Nootkatone Repellency (corrected for isopropanol control) / bed bugs on 10% Nootkatone-treated filter paper, average count of five trials (of 10): 10% nootkatone, 0.1% BHT in isopropanol
Procedure: A formulation, containing 10% nootkatone, 0.1% butylated hydroxytoluene (BHT) in isopropanol was tested for efficacy for repelling adult bed bugs (Cimex lectularius). Treatment chambers were created by cutting a circular hole in the bottom of 15-cm Petri dishes. A fine mesh nylon cloth was then glued to Petri dishes, covering the holes. The chambers were formed using the inverted Petri dishes with the screened bottoms serving as the tops and the lids forming the base of the chambers. The lids were secured with rubber bands.
Five semi-circular pieces of filter paper, with a diameter of 15 cm, were arranged so that they were evenly spaced on a sheet of aluminum foil. Equal amounts of 10% nootkatone solution, stored at ambient temperature and humidity, were applied to the filter papers until they were wet to the point of runoff. Five untreated semi-circular pieces were marked with the letter “c”, for control, on both sides in pencil or solvent resistant ink. One nootkatone-treated filter paper and one untreated filter paper were placed with the flat sides against each other, creating a full circle, in the lids of five 15-cm Petri dishes, serving as the treatment chambers described above, such that the entire surface of the lid was covered. Immediately after placing the filter paper semi-circles into the lid, 10 bed bugs, having received a blood meal no more than 7 days before, were placed onto the untreated piece of paper and covered with the ventilated base of the Petri dish. The containers of each replicate were then kept at ambient laboratory temperature and humidity for the duration of the study. The distribution of the bed bugs on the treated and untreated filter papers was recorded at 0.5, 1, 1.5, 2, and 24 hours after being placed in the containers. Observations were made in darkness with the aid of a red lens flashlight. Gloves and a dust mask were worn by the observer to reduce detection of the bed bugs and to minimize disturbance caused by the observer. Five additional treatment chambers were created as described above, except the treated filter paper was soaked with isopropyl alcohol (control treatment), instead of the 10% nootkatone solution. Bed bug distribution in the control chambers were recorded as described for the treatment condition.
The nootkatone treatment repellency was calculated from the following equation: R=[(C−T)/C]*100, where R is the % repellency, C is the fraction of bed bugs on the isopropanol-treated filter papers, and T is the fraction of bed bugs on the nootkatone-treated filter papers.
A formulation, containing 5% nootkatone, 0.1% butylated hydroxytoluene (BHT) in acetone was tested for efficacy for repelling adult bed bugs (Cimex lectularius) using the methods as described above.
The duration of 1% and 0.25% nootkatone […] repellent effects was evaluated in this example. Bed bug (Cimex lectularius) treatment chambers were created as described in part A above, except using 9-cm Petri dishes and semicircles of filter paper with a diameter of 9 cm. Five replicate semicircles of filter paper were treated with 1 ml 1.0% nootkatone, 0.1% BHT in ethanol; 0.25% nootkatone, 0.1% BHT in ethanol; or ethanol alone (control), and placed side by side with untreated filter papers (marked with a “c”) in Petri dishes so that the lid surfaces were completely covered as previously described in part A. Prior to addition of the bed bugs, the filter papers were confirmed to be completely dry and free of any residual ethanol odor.
Following chamber preparation, 10 bed bugs, having received a blood meal no more than 7 days prior, were added to each chamber on the untreated filter paper as described above. Distribution of the 10 bed bugs per chamber was recorded at 0.5, 1, 1.5, 2, and 24 hours following treatment (Day 1). At the end of 24 hours, the old bed bugs were removed from the Petri dish and 10 new bed bugs were added. […]

[1] = 0.01% nootkatone in acetone, Day 1, 0.5 hour
[2] = 0.01% nootkatone in acetone, Day 1, 1.5 hour
[3] = 0.01% nootkatone in acetone, Day 1, 2.0 hour
[4] = 0.01% nootkatone in acetone, Day 1, Average of time points
[5] = 0.01% nootkatone in acetone, Day 2, 0.5 hour
[6] = 0.01% nootkatone in acetone, Day 2, 1.0 hour
[7] = 0.01% nootkatone in acetone, Day 2, 1.5 hour
[8] = 0.01% nootkatone in acetone, Day 2, 2.0 hour
[9] = 0.01% nootkatone in acetone, Day 2, 24.0 hour
[10] = 0.01% nootkatone in acetone, Day 2, Average of time points
[11] = 0.10% nootkatone in acetone, Day 1, 1.0 hour
[12] = 0.10% nootkatone in acetone, Day 1, 1.5 hour
[13] = 0.10% nootkatone in acetone, Day 1, 24.0 hour
[14] = 0.10% nootkatone in acetone, Day 1, Average of time points
[15] = 0.10% nootkatone in acetone, Day 2, 0.5 hour
[16] = 0.10% nootkatone in acetone, Day 2, 1.0 hour
[17] = 0.10% nootkatone in acetone, Day 2, 1.5 hour
[18] = 0.10% nootkatone in acetone, Day 2, 2.0 hour
[19] = 0.10% nootkatone in acetone, Day 2, 24.0 hour
[20] = 0.10% nootkatone in acetone, Day 2, Average of time points
[21] = 0.50% nootkatone in acetone, Day 1, 1.0 hour
[22] = 0.50% nootkatone in acetone, Day 1, 1.5 hour
[23] = 0.50% nootkatone in acetone, Day 1, 2.0 hour
[24] = 0.50% nootkatone in acetone, Day 1, 24.0 hour
[25] = 0.50% nootkatone in acetone, Day 2, 0.5 hour
[26] = 0.50% nootkatone in acetone, Day 2, 1.5 hour
[27] = 0.50% nootkatone in acetone, Day 2, 2.0 hour
[28] = 0.50% nootkatone in acetone, Day 2, 24.0 hour

Compound: C=C(C)[C@@H]1CCC2=CC(=O)C[C@@H](C)[C@]2(C)C1 [nootkatone, 4,4a,5,6,7,8-hexahydro-6-isopropenyl-4,4a-dimethyl-2(3H)-naphtalenone]
- Repellency (%) Treatment Group [1]: 68.0%
- bed bugs on Nootkatone treatment filter paper (count, of 50) [1]: 16
- bed bugs on Nootkatone treatment filter paper (count, of 50) (0.01% nootkatone in acetone, Day 1, 1.0 hour): 17
- Repellency (%) Treatment Group [2]: 66.0%
- bed bugs on Nootkatone treatment filter paper (count, of 50) [2]: 17
- Repellency (%) Treatment Group [3]: 72.0%
- bed bugs on Nootkatone treatment filter paper (count, of 50) [3]: 14
- Repellency (%) Treatment Group (0.01% nootkatone in acetone, Day 1, 24.0 hour): 58.0%
- Repellency (%) Treatment Group [4]: 66.0%
- bed bugs on Nootkatone treatment filter paper (count, of 50) [4]: 17.0
- Repellency (%) Treatment Group [5]: 82.0%
- bed bugs on Nootkatone treatment filter paper (count, of 50) [5]: 9
- Repellency (%) Treatment Group [6]: 72.0%
- bed bugs on Nootkatone treatment filter paper (count, of 50) [6]: 14
- Repellency (%) Treatment Group [7]: 62.0%
- bed bugs on Nootkatone treatment filter paper (count, of 50) [7]: 19
- Repellency (%) Treatment Group [8]: 64.0%
- bed bugs on Nootkatone treatment filter paper (count, of 50) [8]: 18
- Repellency (%) Treatment Group [9]: 62.0%
- bed bugs on Nootkatone treatment filter paper (count, of 50) [9]: 19
- Repellency (%) Treatment Group [10]: 68.4%
- bed bugs on Nootkatone treatment filter paper (count, of 50) [10]: 15.8
- bed bugs on Nootkatone treatment filter paper (count, of 50) (0.10% nootkatone in acetone, Day 1, 0.5 hour): 3
- Repellency (%) Treatment Group [11]: 92.0%
- bed bugs on Nootkatone treatment filter paper (count, of 50) [11]: 4
- Repellency (%) Treatment Group [12]: 90.0%
- bed bugs on Nootkatone treatment filter paper (count, of 50) [12]: 5
- bed bugs on Nootkatone treatment filter paper (count, of 50) (0.10% nootkatone in acetone, Day 1, 2.0 hour): 3
- Repellency (%) Treatment Group [13]: 98.0%
- bed bugs on Nootkatone treatment filter paper (count, of 50) [13]: 1
- Repellency (%) Treatment Group [14]: 93.6%
- bed bugs on Nootkatone treatment filter paper (count, of 50) [14]: 3.2
- Repellency (%) Treatment Group [15]: 72.0%
- bed bugs on Nootkatone treatment filter paper (count, of 50) [15]: 14
- Repellency (%) Treatment Group [16]: 70.0%
- bed bugs on Nootkatone treatment filter paper (count, of 50) [16]: 15
- Repellency (%) Treatment Group [17]: 74.0%
- bed bugs on Nootkatone treatment filter paper (count, of 50) [17]: 13
- Repellency (%) Treatment Group [18]: 70.0%
- bed bugs on Nootkatone treatment filter paper (count, of 50) [18]: 15
- Repellency (%) Treatment Group [19]: 82.0%
- bed bugs on Nootkatone treatment filter paper (count, of 50) [19]: 9
- Repellency (%) Treatment Group [20]: 73.6%
- bed bugs on Nootkatone treatment filter paper (count, of 50) [20]: 13.2
- bedbug repellency, in words (0.1% nootkatone in acetone, day two): moderate (statistically significant) repellent
- bedbug repellency, in words (0.25% nootkatone in ethanol): not sufficient to repel bed bugs
- Corrected 0.25% nootkatone repellency (Day 1): 19%
- bed bugs on 0.25% Nootkatone-treated filter paper, average count (of 10) (Day 1): 2.68
- Corrected 0.25% nootkatone repellency (Day 2): 23%
- bed bugs on 0.25% Nootkatone-treated filter paper, average count (of 10) (Day 2): 4.2
- Corrected 0.25% nootkatone repellency (Day 3): 49%
- bed bugs on 0.25% Nootkatone-treated filter paper, average count (of 10) (Day 3): 2.32
- Corrected 0.25% nootkatone repellency (Day 4): −14%
- bed bugs on 0.25% Nootkatone-treated filter paper, average count (of 10) (Day 4): 4
- Repellency (%) Treatment Group [21]: 100.0%
- bed bugs on Nootkatone treatment filter paper (count, of 50) [21]: 0
- Repellency (%) Treatment Group [22]: 100.0%
- bed bugs on Nootkatone treatment filter paper (count, of 50) [22]: 0
- Repellency (%) Treatment Group [23]: 100.0%
- bed bugs on Nootkatone treatment filter paper (count, of 50) [23]: 0
- Repellency (%) Treatment Group [24]: 100.0%
- bed bugs on Nootkatone treatment filter paper (count, of 50) [24]: 0
- Repellency (%) Treatment Group (0.50% nootkatone in acetone, Day 1, Average of time points): 100.0%
- Repellency (%) Treatment Group [25]: 86.0%
- bed bugs on Nootkatone treatment filter paper (count, of 50) [25]: 7
- bed bugs on Nootkatone treatment filter paper (count, of 50) (0.50% nootkatone in acetone, Day 2, 1.0 hour): 6
- Repellency (%) Treatment Group [26]: 94.0%
- bed bugs on Nootkatone treatment filter paper (count, of 50) [26]: 3
- Repellency (%) Treatment Group [27]: 98.0%
- bed bugs on Nootkatone treatment filter paper (count, of 50) [27]: 1
- Repellency (%) Treatment Group [28]: 92.0%
- bed bugs on Nootkatone treatment filter paper (count, of 50) [28]: 4
- Repellency (%) Treatment Group (0.50% nootkatone in acetone, Day 2, Average of time points): 91.6%
- duration of bed bug repellency following treatment (1% nootkatone in ethanol on filter paper): about 4 days
- Corrected 1% nootkatone repellency (Day 1): 93%
- bed bugs on 1% Nootkatone-treated filter paper, average count (of 10) (Day 1): 0.24
- Corrected 1% nootkatone repellency (Day 2): 66%
- bed bugs on 1% Nootkatone-treated filter paper, average count (of 10) (Day 2): 1.84
- Corrected 1% nootkatone repellency (Day 3): 81%
- bed bugs on 1% Nootkatone-treated filter paper, average count (of 10) (Day 3): 0.88
- Corrected 1% nootkatone repellency (Day 4): 84%
- bed bugs on 1% Nootkatone-treated filter paper, average count (of 10) (Day 4): 0.56
- Corrected 1% nootkatone repellency (Day 5): 68%
- bed bugs on 1% Nootkatone-treated filter paper, average count (of 10) (Day 5): 1.52
- Corrected 1% nootkatone repellency (Day 6): 20%
- bed bugs on 1% Nootkatone-treated filter paper, average count (of 10) (Day 6): 2.24
- Corrected 1% nootkatone repellency (Day 7): 63%
- bed bugs on 1% Nootkatone-treated filter paper, average count (of 10) (Day 7): 1.84
- Nootkatone Repellency (0.5 hr): 100.0%
- bed bugs on nootkatone-treated filter paper (count, of 50) (0.5 hr): 0
- Nootkatone Repellency (1 hr): 100.0%
- bed bugs on nootkatone-treated filter paper (count, of 50) (1 hr): 0
- Nootkatone Repellency (1.5 hr): 100.0%
- bed bugs on nootkatone-treated filter paper (count, of 50) (1.5 hr): 0
- Nootkatone Repellency (2 hr): 100.0%
- bed bugs on nootkatone-treated filter paper (count, of 50) (2 hr): 0
- Nootkatone Repellency (24 hr): 100.0%
- bed bugs on nootkatone-treated filter paper (count, of 50) (24 hr): 0
- Nootkatone Repellency (Averages of time points): 100.0%
- bed bugs on nootkatone-treated filter paper (count, of 50) (Averages of time points): 0
- bed bug repellency compared with acetone alone, in words (5% nootkatone in acetone): repels bed bugs to a greater extent than that observed for acetone alone
- bed bug repellency compared with isopropanol alone, in words (10% nootkatone in isopropyl alcohol): repels bed bugs to a greater extent than that observed for isopropanol alone
- Nootkatone Repellency (corrected for isopropanol control) (0.5 hr): 85.7%
- bed bugs on 10% Nootkatone-treated filter paper, average count of five trials (of 10) (0.5 hr): 0.4
- Nootkatone Repellency (corrected for isopropanol control) (1 hr): 100.0%
- bed bugs on 10% Nootkatone-treated filter paper, average count of five trials (of 10) (1 hr): 0
- Nootkatone Repellency (corrected for isopropanol control) (1.5 hr): 100.0%
- bed bugs on 10% Nootkatone-treated filter paper, average count of five trials (of 10) (1.5 hr): 0
- Nootkatone Repellency (corrected for isopropanol control) (2 hr): 100.0%
- bed bugs on 10% Nootkatone-treated filter paper, average count of five trials (of 10) (2 hr): 0
- Nootkatone Repellency (corrected for isopropanol control) (24 hr): 100.0%
- bed bugs on 10% Nootkatone-treated filter paper, average count of five trials (of 10) (24 hr): 0
- Repellency (summary of bedbug repellency) (Nootkatone 0.010% in acetone, Day 2): 68.0%
- Repellency (summary of bedbug repellency) (Nootkatone 0.10% in acetone, Day 2): 73.6%
- Repellency (summary of bedbug repellency) (Nootkatone 0.50% in acetone, Day 1): 100.0%
- Repellency (summary of bedbug repellency) (Nootkatone 0.50% in acetone, Day 2): 91.6%

Reference: US20150250166A1, “NOOTKATONE AS AN INSECTICIDE AND INSECT REPELLENT” (ALLYLIX, INC., priority 2012, published 2015)
